Test results taken from patent US6635641B2 (Agouron Pharmaceuticals, Inc., priority 2000, dated 2003).
Where a name gives a salt, the structure may show the parent alone. Read-outs that look alike come from different tables or passages of the source.

Legend:
[1] = target: T1, TEK/Tie-2 intracellular kinase domain (Homo sapiens, UniProt Q02763); test: TEK/Tie-2 spectrophotometric assay; type: biochemical; conditions: read-out: TEK-P percent inhibition
T1 construct: residues 775 to 1124, with methionine added at the N-terminus; made in house; host or cells: baculovirus expression system
T1 sequence (Q02763 775-1124): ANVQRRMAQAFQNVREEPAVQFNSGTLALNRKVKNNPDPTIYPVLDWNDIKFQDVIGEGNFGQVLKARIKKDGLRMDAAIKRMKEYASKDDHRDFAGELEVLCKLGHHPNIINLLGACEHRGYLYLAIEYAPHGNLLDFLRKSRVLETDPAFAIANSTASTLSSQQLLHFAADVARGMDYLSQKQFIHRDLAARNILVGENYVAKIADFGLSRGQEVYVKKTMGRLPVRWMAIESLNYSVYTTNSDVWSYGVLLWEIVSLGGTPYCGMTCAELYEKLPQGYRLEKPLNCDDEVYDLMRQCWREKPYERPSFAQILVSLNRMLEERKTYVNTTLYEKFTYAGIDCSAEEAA
Method: The intracellular kinase domain (residues 775 to 1124, with methionine added at the N-terminus) of human TEK/Tie-2 was expressed using the baculovirus vector expression system. For assay purposes, the enzyme was autophosphorylated prior to use by incubation overnight at 4° C., at 10 μM enzyme concentration, with 4 mM ATP, 40 mM MgCl2, and 5 mM DTT in 200 mM Hepes buffer at ph 7.5, in 90:10 water:glycerol.
The production of ADP from ATP that accompanies phosphoryl transfer was coupled to oxidation of NADH using phosphoenolpyruvate (PEP) and a system having pyruvate kinase (PK) and lactic dehydrogenase (LDH). The oxidation of NADH was monitored by following the decrease of absorbance at 340 nm (e340=6.22 cm^−1 mM^−1) using a Beckman DU 650 spectrophotometer. Assay conditions for phosphorylated VEGF-R2Δ50 (indicated as FLVK-P in the tables below) were the following: 1 mM PEP; 250 μM NADH; 50 units of LDH/mL; 20 units of PK/mL; 5 mM DTT; 5.1 mM poly(E4Y1); 1 mM ATP; and 25 mM MgCl2 in 200 mM Hepes, pH 7.5. Assay conditions for unphosphorylated VEGF-R2Δ50 (indicated as FLVK in the tables) were the following: 1 mM PEP; 250 μM NADH; 50 units of LDH/mL; 20 units of PK/mL; 5 mM DTT; 20 mM poly(E4Y1); 3 mM ATP; and 60 mM MgCl2 and 2 mM MnCl2 in 200 mM Hepes, pH 7.5. Assays were initiated with 5 to 40 nM of enzyme. Ki values were determined by measuring enzyme activity in the presence of varying concentrations of test compounds. The data were analyzed using Enzyme Kinetic and Kaleidagraph software.
The spectrophotometric assay was carried out as described above for VEGF-R2, except for the following changes in concentration: TEK/Tie-2=200 nM, MgCl2=40 mM, and ATP=2 mM.

[2] = test system: lung cancer cells (line MV522); test: Cancer cell proliferation (MV522) assay (MTT); type: cell-based; conditions: MV522
Procedure, shortened: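 Proliferation was read by MTT reduction 72 h after compound addition, in a 4-day protocol with no starvation step. Two thousand MV522 cells were seeded in RPMI1640 with 10% FBS and 2 mM glutamine and given 1 day to attach before dosing.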

[3] = target: T2, FGF-R1 intracellular kinase domain (Homo sapiens, UniProt P11362, C488A/C584S/L457V); test: FGF-R spectrophotometric assay; type: biochemical; conditions: read-out: FGF-P Ki
T2 construct: starting from the endogenous methionine residue 456 to glutamate 766; made in house; host or cells: baculovirus expression system
T2 sequence (P11362 456-766 L457V/C488A/C584S): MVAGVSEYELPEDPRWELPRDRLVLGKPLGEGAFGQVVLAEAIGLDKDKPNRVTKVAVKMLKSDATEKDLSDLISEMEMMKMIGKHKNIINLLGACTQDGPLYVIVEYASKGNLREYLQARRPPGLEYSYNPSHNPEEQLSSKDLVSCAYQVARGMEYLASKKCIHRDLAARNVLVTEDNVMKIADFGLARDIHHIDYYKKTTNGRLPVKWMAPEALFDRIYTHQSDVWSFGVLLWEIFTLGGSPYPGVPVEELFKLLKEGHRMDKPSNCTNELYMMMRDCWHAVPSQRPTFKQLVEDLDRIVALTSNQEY

[4] = target: T3, unphosphorylated VEGF-R2Δ50 (FLVK) (Homo sapiens, UniProt P35968, DEL940-989/E990V); test: VEGF-R2 coupled spectrophotometric assay, unphosphorylated construct (FLVK); type: biochemical;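 note: Baculovirus-expressed cytosolic kinase domain, ADP formation linked via pyruvate kinase and lactate dehydrogenase to NADH oxidation, read as falling absorbance at 340 nm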
T3 construct: VEGF-R2Δ50 contains residues 806-939 and 990-1171; made in house; host or cells: baculovirus/insect cells
T3 sequence (P35968 with tags, fused parts or gaps DEL940-989/E990V limits assumed): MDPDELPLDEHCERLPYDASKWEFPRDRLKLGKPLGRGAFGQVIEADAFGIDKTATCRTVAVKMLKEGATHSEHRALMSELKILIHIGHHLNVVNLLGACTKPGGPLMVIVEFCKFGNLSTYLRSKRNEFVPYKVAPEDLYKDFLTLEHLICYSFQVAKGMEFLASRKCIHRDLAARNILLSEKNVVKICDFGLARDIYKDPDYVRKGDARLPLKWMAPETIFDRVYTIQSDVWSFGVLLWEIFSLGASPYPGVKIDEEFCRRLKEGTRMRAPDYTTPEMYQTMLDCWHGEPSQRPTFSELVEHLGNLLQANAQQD

LCK tyrosine kinase = target: T4, LCK tyrosine kinase (Homo sapiens, UniProt P06239, C224D/P223M); test: LCK spectrophotometric assay; type: biochemical; conditions: read-out: LCK-P Ki;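 note: recombinant LCK kinase activity on poly(E4Y1), ADP formation coupled through PK/LDH to NADH oxidation, followed as absorbance loss at 340 nm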
T4 construct: starting from amino acid residue 223 to the end of the protein at residue 509; made in house; host or cells: insect cells
T4 sequence (P06239 223-509 P223M/C224D): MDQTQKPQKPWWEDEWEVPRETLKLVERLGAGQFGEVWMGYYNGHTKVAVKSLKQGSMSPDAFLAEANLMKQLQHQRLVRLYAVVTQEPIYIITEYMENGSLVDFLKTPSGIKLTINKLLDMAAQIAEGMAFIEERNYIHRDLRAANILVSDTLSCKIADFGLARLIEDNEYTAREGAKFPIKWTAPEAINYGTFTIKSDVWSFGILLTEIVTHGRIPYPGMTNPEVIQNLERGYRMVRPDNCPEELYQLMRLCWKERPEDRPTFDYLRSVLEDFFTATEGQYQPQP

[5] = target: T5, phosphorylated VEGF-R2Δ50 (FLVK-P) (Homo sapiens, UniProt P35968, DEL940-989/E990V); test: VEGF-R2 coupled spectrophotometric assay, phosphorylated construct (FLVK-P); type: biochemical
T5 construct: VEGF-R2Δ50 contains residues 806-939 and 990-1171; made in house; host or cells: baculovirus/insect cells
T5 sequence (P35968 with tags, fused parts or gaps DEL940-989/E990V limits assumed): as the sequence (P35968 with tags, fused parts or gaps DEL940-989/E990V limits assumed) above
Procedure, shortened: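 Continuous PK/LDH-coupled spectrophotometric read (NADH loss at 340 nm) with 5–40 nM enzyme in 200 mM Hepes pH 7.5. Phosphorylated construct run at 1 mM ATP, 25 mM MgCl2, 5.1 mM poly(E4Y1); unphosphorylated at 3 mM ATP, 60 mM MgCl2 plus 2 mM MnCl2, 20 mM poly(E4Y1). Ki values derived from varied inhibitor concentrations.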

[6] = test system: human umbilical vein endothelial cells (HUVEC); test: HUVEC proliferation assay (VEGF-stimulated, MTT); type: cell-based; conditions: Homo sapiens, HUVEC
Procedure, shortened: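 Proliferation measured by MTT reduction (4 h exposure, absorbance at 595) 72 hours after VEGF stimulation (final 6 ng/ml). Compound added to 24 h-starved HUVEC in F12K with 1% FBS and 0.1% final DMSO, one hour before the growth factor.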

CDK2/Cyclin A complex = CDK2/Cyclin A complex (Homo sapiens, UniProt P24941); test: CDK2/Cyclin A assay ([32P]ATP incorporation into Rb fragment); type: biochemical; conditions: μM
Method: CDK2 was purified using published methodology (Rosenblatt et al., J. Mol. Biol., 230, 1317-1319 (1993)) from insect cells that had been infected with a baculovirus expression vector. Cyclin A was purified from E. coli cells expressing full-length recombinant cyclin A, and a truncated cyclin A construct was generated by limited proteolysis and purified as described previously (Jeffrey et al., Nature, 376, 313-320 (1995)).
Cyclin-dependent kinase activity was measured by quantifying the enzyme-catalyzed, time-dependent incorporation of radioactive phosphate from [^32P]ATP into a recombinant fragment of the retinoblastoma protein. Unless noted otherwise, assays were performed in 96-well plates in a total volume of 50 μL, in the presence of 10 mM HEPES (N-[2-hydroxyethyl]piperazine-N′-[2-ethanesulfonic acid]) (pH 7.4), 10 mM MgCl2, 25 μM adenosine triphosphate (ATP), 1 mg/mL ovalbumin, 5 μg/mL leupeptin, 1 mM dithiothreitol, 10 mM β-glycerophosphate, 0.1 mM sodium vanadate, 1 mM sodium fluoride, 2.5 mM ethylene glycol-bis(β-aminoethyl ether)-N,N,N′N′-tetraacetic acid (EGTA), 2% (v/v) dimethylsulfoxide, and 0.03-0.2 μCi [^32P]ATP. The substrate (0.3-0.5 μg) was purified recombinant retinoblastoma protein fragment (Rb) (residues 386-928 of the native retinoblastoma protein; 62.3 kDa, containing the majority of the phosphorylation sites found in the native 106-kDa protein, as well as a tag of six histidine residues for ease of purification). Reactions were initiated with CDK2 (150 nM CDK2/Cyclin A complex) or CDK4 (50 nM CDK4/Cyclin D3 complex), incubated at 30° C., and terminated after 20 minutes by the addition of ethylenediaminetetraacetic acid (EDTA) to 250 mM. The phosphorylated substrate was then captured on a nitrocellulose membrane using a 96-well filtration manifold, and unincorporated radioactivity was removed by repeated washing with 0.85% phosphoric acid. Radioactivity was quantified by exposing the dried nitrocellulose membranes to a phosphorimager. Apparent Ki values were measured by assaying enzyme activity in the presence of different compound concentrations and subtracting the background radioactivity measured in the absence of enzyme. The kinetic parameters (kcat, Km for ATP) were measured for each enzyme under the usual assay conditions by determining the dependence of initial rates on ATP concentration. The data were fit to an equation for competitive inhibition using Kaleidagraph (Synergy Software), or were fit to an equation for competitive tight-binding inhibition using the software KineTic (BioKin, Ltd.). Measured Ki values for known inhibitors against CDK4 and CDK2 agreed with published IC50 values. […]

CDK4/Cyclin D3 complex = target: T6, CDK4/Cyclin D3 complex (Homo sapiens, UniProt P11802); test: CDK4/Cyclin D assay ([32P]ATP incorporation into Rb fragment); type: biochemical; conditions: μM
T6 construct: made in house; host or cells: insect cells co-infected with baculovirus vectors
T6 sequence (P11802 whole entry, the tested form may be a part): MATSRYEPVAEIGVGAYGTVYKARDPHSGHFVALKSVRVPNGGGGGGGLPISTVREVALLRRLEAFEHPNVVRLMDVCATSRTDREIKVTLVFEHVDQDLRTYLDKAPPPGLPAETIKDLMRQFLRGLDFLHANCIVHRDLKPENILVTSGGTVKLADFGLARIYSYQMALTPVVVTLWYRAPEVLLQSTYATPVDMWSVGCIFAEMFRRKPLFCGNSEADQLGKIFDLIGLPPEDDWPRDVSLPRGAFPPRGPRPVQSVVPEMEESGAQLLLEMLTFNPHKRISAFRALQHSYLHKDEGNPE
T6 sequence (P30281 whole entry partner, the tested form may be a part): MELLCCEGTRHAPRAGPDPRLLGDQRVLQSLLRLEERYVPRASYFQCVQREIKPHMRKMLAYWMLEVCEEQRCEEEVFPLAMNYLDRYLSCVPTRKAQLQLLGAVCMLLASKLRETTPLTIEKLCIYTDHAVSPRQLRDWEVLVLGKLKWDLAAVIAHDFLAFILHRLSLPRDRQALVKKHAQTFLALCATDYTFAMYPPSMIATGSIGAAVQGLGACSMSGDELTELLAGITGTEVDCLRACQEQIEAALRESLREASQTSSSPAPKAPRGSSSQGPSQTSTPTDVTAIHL
Method: A complex of human CDK4 and cyclin D3, or a complex of cyclin D1 and a fusion protein of human CDK4 and glutathione-S-transferase (GST-CDK4), was purified using traditional biochemical chromatographic techniques from insect cells that had been co-infected with the corresponding baculovirus expression vectors.
Cyclin-dependent kinase activity was measured by quantifying the enzyme-catalyzed, time-dependent incorporation of radioactive phosphate from [^32P]ATP into a recombinant fragment of the retinoblastoma protein. Unless noted otherwise, assays were performed in 96-well plates in a total volume of 50 μL, in the presence of 10 mM HEPES (N-[2-hydroxyethyl]piperazine-N′-[2-ethanesulfonic acid]) (pH 7.4), 10 mM MgCl2, 25 μM adenosine triphosphate (ATP), 1 mg/mL ovalbumin, 5 μg/mL leupeptin, 1 mM dithiothreitol, 10 mM β-glycerophosphate, 0.1 mM sodium vanadate, 1 mM sodium fluoride, 2.5 mM ethylene glycol-bis(β-aminoethyl ether)-N,N,N′N′-tetraacetic acid (EGTA), 2% (v/v) dimethylsulfoxide, and 0.03-0.2 μCi [^32P]ATP. The substrate (0.3-0.5 μg) was purified recombinant retinoblastoma protein fragment (Rb) (residues 386-928 of the native retinoblastoma protein; 62.3 kDa, containing the majority of the phosphorylation sites found in the native 106-kDa protein, as well as a tag of six histidine residues for ease of purification). Reactions were initiated with CDK2 (150 nM CDK2/Cyclin A complex) or CDK4 (50 nM CDK4/Cyclin D3 complex), incubated at 30° C., and terminated after 20 minutes by the addition of ethylenediaminetetraacetic acid (EDTA) to 250 mM. The phosphorylated substrate was then captured on a nitrocellulose membrane using a 96-well filtration manifold, and unincorporated radioactivity was removed by repeated washing with 0.85% phosphoric acid. Radioactivity was quantified by exposing the dried nitrocellulose membranes to a phosphorimager. Apparent Ki values were measured by assaying enzyme activity in the presence of different compound concentrations and subtracting the background radioactivity measured in the absence of enzyme. The kinetic parameters (kcat, Km for ATP) were measured for each enzyme under the usual assay conditions by determining the dependence of initial rates on ATP concentration. The data were fit to an equation for competitive inhibition using Kaleidagraph (Synergy Software), or were fit to an equation for competitive tight-binding inhibition using the software KineTic (BioKin, Ltd.). Measured Ki values for known inhibitors against CDK4 and CDK2 agreed with published IC50 values. The specific activity of CDK4 was the same whether complexed to full-length cyclin D3 or the truncated Cyclin D3 construct; both complexes also yielded very similar Ki values for selected inhibitors.

FL-CHK-1 = target: T7, FL-CHK-1 (Homo sapiens, UniProt O14757); test: CHK-1 coupled spectrophotometric assay (Syntide-2); type: biochemical
T7 construct: C-terminally His-tagged full-length human CHK-1 (FL-CHK-1); made in house; host or cells: baculovirus/insect cells
T7 sequence (O14757 1-476): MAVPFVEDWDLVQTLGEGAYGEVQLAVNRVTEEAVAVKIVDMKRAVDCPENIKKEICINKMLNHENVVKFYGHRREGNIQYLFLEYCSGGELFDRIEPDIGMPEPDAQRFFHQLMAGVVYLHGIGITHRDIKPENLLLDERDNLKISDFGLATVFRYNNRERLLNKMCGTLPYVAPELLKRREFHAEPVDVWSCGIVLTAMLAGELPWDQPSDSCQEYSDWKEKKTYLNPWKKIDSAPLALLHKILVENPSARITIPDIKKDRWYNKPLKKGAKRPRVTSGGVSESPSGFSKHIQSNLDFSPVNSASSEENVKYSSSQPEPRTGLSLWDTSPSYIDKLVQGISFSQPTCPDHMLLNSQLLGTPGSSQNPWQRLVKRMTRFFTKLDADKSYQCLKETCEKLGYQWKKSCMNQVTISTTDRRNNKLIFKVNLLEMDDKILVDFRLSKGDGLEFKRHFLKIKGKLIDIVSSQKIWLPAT
From the text: C-terminally His-tagged full-length human CHK-1 (FL-CHK-1) was expressed using the baculovirus/insect cell system. It contains 6 histidine residues (6×His-tag) at the C-terminus of the 476 amino acid human CHK-1. The protein was purified by conventional chromatographic techniques.
The production of ADP from ATP that accompanies phosphoryl transfer to the synthetic substrate peptide Syntide-2 ([…]) was coupled to oxidation of NADH using phosphoenolpyruvate (PEP) through the actions of pyruvate kinase (PK) and lactic dehydrogenase (LDH). The oxidation of NADH was monitored by following the decrease of absorbance at 340 nm (ε340=6.22 cm−1 mM^−1) using a HP8452 spectrophotometer. Typical reaction solutions contained: […]; 0.15 mM NADH; 28 units of LDH/ml; 16 units of PK/ml; 3 mM DTT; 0.125 mM Syntide-2; 0.15 mM ATP; 25 mM MgCl2 in 50 mM TRIS, pH 7.5; and 400 mM NaCl. Assays were initiated with 10 nM of FL-CHK-1. Ki values were determined by measuring initial enzyme activity in the presence of varying concentrations of test compounds. The data were analyzed using Enzyme Kinetic and Kaleidagraph software.

[7] = with albumin, read-out: Huvec + Albumin IC50

inhibition at 1 µM [1] | IC50 [2] | Ki [3] | Ki [4] | Ki (LCK tyrosine kinase) | Ki [5] | melting point | Ki (CDK2/Cyclin A complex) | Ki (CDK4/Cyclin D3 complex) | Ki (FL-CHK-1) | SMILES | IC50 ([6]; read-out: HUVEC IC50) | IC50 [6, 7]
14% | > 10000 nM | 23 nM | 0.25 nM | 27 nM | 0.65 nM | – | – | – | – | COc1ccc(Nc2cc(CCc3cccc(C(=O)Nc4cc(Cl)c(N(C)C)c(Cl)c4)c3)[nH]n2)cn1 [Example G-7, N-(3,5-Dichloro-4-dimethylaminophenyl)-3-{2-[5-(6-methoxy-pyridin-3-yl)amino-2H-pyrazol-3-yl]ethyl}benzamide] | 17 nM | 190 nM
– | > 10000 nM | – | 0.95 nM | – | 4.79 nM | 67 to 69 °C | > 100 µM | > 100 µM | – | COc1cc(NC(=O)c2cccc(SCc3cc(Nc4ccccc4)n[nH]3)c2)cc(OC)c1OC [Example E-2] | 55 nM | –
– | > 10000 nM | – | 3.4 nM | – | 1.66 nM | – | – | – | 26000 nM | Cc1ccc2cc(NC(=O)c3cccc(OCc4cncc5ccccc45)c3)ccc2n1 [Example K-3, 3-(Isoquinolin-4-yl)methoxy-N-(2-methyl-quinolin-6-yl)-benzamide hydrochloride] | 430 nM | –
62% | 8700 nM | 20 nM | 0.035 nM | 5.8 nM | 0.73 nM | – | – | – | – | COc1ccc(Nc2cc(CCc3cccc(C(=O)Nc4ccc(N5CCCC5)c(C(F)(F)F)c4)c3)[nH]n2)cn1 [Example G-8, 3-{2-[5-(6-Methoxypyridin-3-yl)amino-2H-pyrazol-3-yl]-ethyl}-N-(4-pyrrolidin-1-yl-3-trifluoromethylphenyl)benzamide] | 12 nM | 114 nM
